Assay results from paper PMC6918687, “Pharmacological inhibition of TAK1, with the selective inhibitor takinib, alleviates clinical manifestation of arthritis in CIA mice” (Arthritis Research & Therapy, 2019).
Like-named read-outs stand apart in the source and are kept apart here.

Key:
[1] = Pharmacokinetics of takinib by LC-MS in plasma and tissues; assay type: in vivo, C3-tag mice; details: C3 tagged mice; for half-life: C3-tag, mouse, ip
Experimental: C3-tag mice were injected intraperitoneally (i.p.) with 50/75mpk takinib and sacrificed at 0, 1 h, 2 h, 4 h, 8 h, 16 h, and 24 h. At the indicated time points, the heart, spleen, kidney, liver, tumor, blood, plasma, muscle, and lung were harvested. All samples were frozen and stored at − 80 °C. Before quantifying the takinib in serum, a standard curve was constructed using HS-219, a close structural analog of takinib that serves as an internal standard. This internal standard solution was used for tissue homogenization. LC-MS analysis was performed at the Duke Proteomics and Metabolomics Core Facility. The final concentration of takinib in the plasma was calculated per milliliter of plasma.
GraphPad Prism 7 was used for statistical analysis of clinical score comparisons, histological analysis, and plasma concentrations. Two-way ANOVA followed by Dunnett’s multiple comparison test was performed for mean clinical score sum (Fig. 1); weight change over time (Fig. 1); joint score sum for all joints, knees, and forepaw and hind paw (Figs. 2, 3); protein analysis (Figs. 5, 6); and cell survival (Fig. 6g). A linear regression of LC-MS data on takinib was used for PK studies. T½ was determined by non-linear one-phase decay curves. Student T tests were performed for periosteal bone width (Additional file 1: Figure S2) and cell survival (Fig. 6f, g). An alpha of 0.05 was used for all statistical analysis.

TAK1 = details: read-out: potency as inhibitor of TAK1; cited from earlier work
RA-FLS cells [2] = assay: NF-κB signaling protein array, TNF-stimulated RA-FLS cells; assay type: cell-based, human; details: TNF 30 ng/mL 24 h
Experimental: (§1) Rheumatoid arthritis fibroblast-like synoviocytes (RA-FLS) cells were prepared from surgical synovial samples at the University of Michigan as previously described. Cells were isolated from 4 individual patients (3 female, 1 male) and passaged no more than 2 times before use. Cells were cultured in CRML media, 10% FBS, 1% penicillin-streptomycin (PS), and 1% glutamate.
(§2) Briefly, 10^6 cells were plated and either no treatment (naïve) or pretreated with takinib (10 μM) or vehicle (DMSO) for 30 min prior to stimulation with TNF (30 ng/mL) for 30 min at 37 °C in 5% CO2 for phospho-kinase assay (R&D Systems). NF-κB and cytokine assays were performed as previously described; however, cells were incubated for 24 h post-TNF (30 ng/mL) or LPS (10 ng/mL) stimulation.

RA-FLS cells [3] = assay: Cytokine/chemokine proteome array, TNF-stimulated RA-FLS cells; assay type: cell-based, human; details: takinib 10 μM, TNF 30 ng/mL 24 h
Experimental: as §1
RA-FLS cells were activated by addition of LPS 10 ng/mL in the presence or absence of 10 μM takinib or DMSO. Twenty-four hours after treatment, supernatant was added to Human Cytokine proteome array (R&D Systems). Cytokine kit was conducted in accordance with manufacturer protocol. Chemiluminescence was used to visualize protein quantities.
as §2

RA-FLS cells [4] = assay: Cytokine/chemokine proteome array, LPS-stimulated RA-FLS cells; assay type: cell-based, human; details: takinib 10 μM
Experimental: as §1
[…] Twenty-four hours after treatment, supernatant was added to Human Cytokine proteome array (R&D Systems). Cytokine kit was conducted in accordance with manufacturer protocol. Chemiluminescence was used to visualize protein quantities.

RA-FLS cells [5] = assay: Cell viability assay (Cell Titer Glo 2.0) in RA-FLS cells; assay type: cell-based
Experimental: RA-FLS cells were cultured and treated as previously described. Briefly, cells were plated at 80% confluency ~ 10^4 in 96-well plates and treated with either takinib at various concentrations or takinib + TNF (30 ng/mL) for 24 or 48 h and compared to vehicle-treated samples. Cell death was quantified using Cell Titer Glo 2.0 (Promega) according to the manufacturer’s protocol.

SMILES: CCCn1/c(=N/C(=O)c2cccc(C(N)=O)c2)[nH]c2ccccc21 [takinib]
- half-life ([1]; heart, 50 mg/kg, 50 mpk i.p., read-out: half-life, heart (converted)): 16 min
- half-life ([1]; heart, 75 mg/kg, 75 mpk i.p., read-out: half-life, heart (converted)): 14.4 min
- half-life ([1]; muscle, 50 mg/kg, 50 mpk i.p., read-out: half-life, muscle (converted)): 8.82 min
- half-life ([1]; muscle, 75 mg/kg, 75 mpk i.p., read-out: half-life, muscle (converted)): 5.64 min
- half-life ([1]; plasma, 50 mg/kg, 50 mpk i.p., read-out: half-life, plasma (converted)): 15.4 min
- half-life ([1]; plasma, 75 mg/kg, 50 or 75 mg/kg i.p., read-out: plasma (serum) clearance t½): 21 min
- half-life ([1]; plasma, 75 mg/kg, 75 mpk i.p., read-out: half-life, plasma (converted)): 28.2 min
- half-life ([1]; spleen, 50 mg/kg, 50 mpk i.p., read-out: half-life, spleen (converted)): 279 min
- half-life ([1]; tumor, 50 mg/kg, 50 mpk i.p., read-out: half-life, tumor (converted)): 22.1 min
- half-life ([1]; tumor, 75 mg/kg, 75 mpk i.p., read-out: half-life, tumor (converted)): 9.94 min
- half-life, spleen ([1]; 50 mpk i.p., 50 mg/kg): 277.6 min
- IC50 (TAK1): ~9 nM
- ASC expression, array signal, Mean (RA-FLS cells [2]; takinib 10 μM, n=4): 29.77
- BCL10 expression, array signal, Mean (RA-FLS cells [2]; takinib 10 μM, n=4): 15.76
- CARD6 expression, array signal, Mean (RA-FLS cells [2]; takinib 10 μM, n=4): 15.29
- CD40/TNFRSFS expression, array signal, Mean (RA-FLS cells [2]; takinib 10 μM, n=4): 23.956
- FADD/MORT1 expression, array signal, Mean (RA-FLS cells [2]; takinib 10 μM, n=4): 36.45
- Fas/TNFRSF6/CD95 expression, array signal, Mean (RA-FLS cells [2]; takinib 10 μM, n=4): 172.1241
- IKK1/IKKα/CHUK expression, array signal, Mean (RA-FLS cells [2]; takinib 10 μM, n=4): 55.68
- IKK2/IKKβ expression, array signal, Mean (RA-FLS cells [2]; takinib 10 μM, n=4): 112.6481
- IKKγ/NEMO expression, array signal, Mean (RA-FLS cells [2]; takinib 10 μM, n=4): 107.307
- IL-1 RI expression, array signal, Mean (RA-FLS cells [2]; takinib 10 μM, n=4): 21.68
- IL-17 RA expression, array signal, Mean (RA-FLS cells [2]; takinib 10 μM, n=4): 19.1835
- IL-18 Rα expression, array signal, Mean (RA-FLS cells [2]; takinib 10 μM, n=4): 17.5855
- IRAK1 expression, array signal, Mean (RA-FLS cells [2]; takinib 10 μM, n=4): 26.78
- IRF5 expression, array signal, Mean (RA-FLS cells [2]; takinib 10 μM, n=4): 16.411
- IRF8 expression, array signal, Mean (RA-FLS cells [2]; takinib 10 μM, n=4): 17.251
- IkBα expression, array signal, Mean (RA-FLS cells [2]; takinib 10 μM, n=4): 33.4
- IkBε expression, array signal, Mean (RA-FLS cells [2]; takinib 10 μM, n=4): 178.592
- JNK1/2 expression, array signal, Mean (RA-FLS cells [2]; takinib 10 μM, n=4): 19.76
- JNK2 expression, array signal, Mean (RA-FLS cells [2]; takinib 10 μM, n=4): 17.3675
- LTBR/TNFRSF3 expression, array signal, Mean (RA-FLS cells [2]; takinib 10 μM, n=4): 22.136
- MYD88 expression, array signal, Mean (RA-FLS cells [2]; takinib 10 μM, n=4): 36.28
- Metadherin/AEG-1 expression, array signal, Mean (RA-FLS cells [2]; takinib 10 μM, n=4): 31.01
- NFκB1 expression, array signal, Mean (RA-FLS cells [2]; takinib 10 μM, n=4): 66.143
- NFκB2 expression, array signal, Mean (RA-FLS cells [2]; takinib 10 μM, n=4): 136.3483
- NGF R/TNFRSF16 expression, array signal, Mean (RA-FLS cells [2]; takinib 10 μM, n=4): 16.68
- RelA/p65 (pS529) array signal, Mean (RA-FLS cells [2]; takinib 10 μM, n=4): 41.57
- RelA/p65 expression, array signal, Mean (RA-FLS cells [2]; takinib 10 μM, n=4): 55.81
- SHARPIN expression, array signal, Mean (RA-FLS cells [2]; takinib 10 μM, n=4): 17.06
- SOCS6 expression, array signal, Mean (RA-FLS cells [2]; takinib 10 μM, n=4): 64.37
- STAT1 (pY701) array signal, Mean (RA-FLS cells [2]; takinib 10 μM, n=4): 15.5275
- STAT1p91 expression, array signal, Mean (RA-FLS cells [2]; takinib 10 μM, n=4): 116.4024
- STAT2 (pY689) array signal, Mean (RA-FLS cells [2]; takinib 10 μM, n=4): 15.96
- STAT2 expression, array signal, Mean (RA-FLS cells [2]; takinib 10 μM, n=4): 148.6364
- STING/TMEM173 expression, array signal, Mean (RA-FLS cells [2]; takinib 10 μM, n=4): 106.8409
- TLR2 expression, array signal, Mean (RA-FLS cells [2]; takinib 10 μM, n=4): 15.725
- TNF RI/TNFRSF1A expression, array signal, Mean (RA-FLS cells [2]; takinib 10 μM, n=4): 14.7
- TNF RII/TNFRSF1B expression, array signal, Mean (RA-FLS cells [2]; takinib 10 μM, n=4): 18.3335
- TRAF2 expression, array signal, Mean (RA-FLS cells [2]; takinib 10 μM, n=4): 17.884
- TRAIL R1/DR4 expression, array signal, Mean (RA-FLS cells [2]; takinib 10 μM, n=4): 21.6
- TRAIL R2/DR5 expression, array signal, Mean (RA-FLS cells [2]; takinib 10 μM, n=4): 91.34
- c-Rel expression, array signal, Mean (RA-FLS cells [2]; takinib 10 μM, n=4): 16.52
- clAP1/BIRC2 expression, array signal, Mean (RA-FLS cells [2]; takinib 10 μM, n=4): 25.47
- clAP2/BIRC3 expression, array signal, Mean (RA-FLS cells [2]; takinib 10 μM, n=4): 18.82
- p53 (pS46) array signal, Mean (RA-FLS cells [2]; takinib 10 μM, n=4): 14.94
- p53 expression, array signal, Mean (RA-FLS cells [2]; takinib 10 μM, n=4): 17.85
- number of NF-κB signaling proteins significantly altered (RA-FLS cells [2]; takinib, out of 45 profiled): 20
- GROα (CXCL1) secretion (RA-FLS cells [3]; p < 0.002): reduced
- ICAM secretion (RA-FLS cells [3]; p < 0.03): reduced
- G-CSF secretion (RA-FLS cells [3]; p < 0.04): reduced
- MIP-1α/MIP-1β secretion (RA-FLS cells [3]; p = 0.11): modest change
- MIF protein level (RA-FLS cells [4]): No significant changes
- Serpin E1 protein level (RA-FLS cells [4]): No significant changes
- CXCL1 level (RA-FLS cells [4]; p < 0.0003): significantly downregulated
- CCL2 level (RA-FLS cells [4]; p < 0.0009): significantly downregulated
- reduction of IL-8 (RA-FLS cells [4]; p < 0.006): 57%
- reduction of IL-6 (RA-FLS cells [4]; p < 0.055): 33%
- cell death vs vehicle control (RA-FLS cells [5]; 10 μM takinib alone, 48 h, p < 0.002): significant amount of cell death
- cytotoxicity in the presence of TNF (RA-FLS cells [5]; takinib at varying doses + TNF 30 ng/mL, 24 and 48 h): Minimal cytotoxicity
